# Test system: MV-4-11 cells
# Test: Gene expression microarray analysis (Affymetrix PrimeView) and GSEA
# Type: cell-based, human
# Set-up: RFU PODN (11730768_x_at) / Fold change /veh PODN (11730768_x_at) / RFU LINC00158 (11744669_a_at) / Fold change /veh LINC00158 (11744669_a_at) / RFU DUSP10 (11751237_a_at) / Fold change /veh DUSP10 (11751237_a_at) / RFU ID3 (11757404_x_at) / Fold change /veh ID3 (11757404_x_at) / RFU PLEKHG5 (11737974_s_at) / Fold change /veh PLEKHG5 (11737974_s_at) / RFU LRRC4B (11730491_at) / Fold change /veh LRRC4B (11730491_at) / RFU GIMAP4 (11747438_a_at) / Fold change /veh GIMAP4 (11747438_a_at) / RFU KRT8 (11758183_x_at) / Fold change /veh KRT8 (11758183_x_at) / RFU CNN1 (11734310_a_at) / Fold change /veh CNN1 (11734310_a_at) / RFU VPS37D (11726825_at) / Fold change /veh VPS37D (11726825_at) / RFU C10orf10 (11716522_x_at) / Fold change /veh C10orf10 (11716522_x_at) / RFU KIR2DL2 /// KIR2DL4 /// KIR2DL5A /// KIR2DL5B /// KIR2DS1 /// KIR2DS2 /// KIR2DS3 /// KIR2DS4 /// KIR3DL3 /// KIR3DL3 /// KIR3DS1 (11738374_at) / Fold change /veh KIR2DL2 /// KIR2DL4 /// KIR2DL5A /// KIR2DL5B /// KIR2DS1 /// KIR2DS2 /// KIR2DS3 /// KIR2DS4 /// KIR3DL3 /// KIR3DL3 /// KIR3DS1 (11738374_at) / RFU C1QL1 (11718748_at) / Fold change /veh C1QL1 (11718748_at) / RFU TMPRSS4 (11747572_a_at) / Fold change /veh TMPRSS4 (11747572_a_at) / RFU HAMP (11756126_x_at) / Fold change /veh HAMP (11756126_x_at) / RFU RNFT2 (11725882_a_at) / Fold change /veh RNFT2 (11725882_a_at) / RFU NR4A2 (11747474_a_at) / Fold change /veh NR4A2 (11747474_a_at) / RFU ABCC12 (11746883_a_at) / Fold change /veh ABCC12 (11746883_a_at) / RFU TMEM136 (11760407_x_at) / Fold change /veh TMEM136 (11760407_x_at) / RFU CLDN22 /// WWC2 (11732394_at) / Fold change /veh CLDN22 /// WWC2 (11732394_at) / RFU HLA-DPB1 (11760878_x_at) / Fold change /veh HLA-DPB1 (11760878_x_at) / RFU SPINT1 (11716480_a_at) / Fold change /veh SPINT1 (11716480_a_at) / RFU GAP43 (11754022_s_at) / Fold change /veh GAP43 (11754022_s_at) / RFU A4GNT (11735810_at) / Fold change /veh A4GNT (11735810_at) / RFU PRB3 (11715151_x_at) / Fold change /veh PRB3 (11715151_x_at) / RFU TUBB4B (11761932_at) / Fold change /veh TUBB4B (11761932_at) / RFU CAPN14 (11732068_a_at) / Fold change /veh CAPN14 (11732068_a_at) / RFU TMCC2 (11721928_a_at) / Fold change /veh TMCC2 (11721928_a_at) / RFU IRGQ (11745062_a_at) / Fold change /veh IRGQ (11745062_a_at) / RFU FAM174B (11720279_a_at) / Fold change /veh FAM174B (11720279_a_at) / RFU TMPRSS4 (11748680_a_at) / Fold change /veh TMPRSS4 (11748680_a_at) / RFU FAM212B (11763350_a_at) / Fold change /veh FAM212B (11763350_a_at) / RFU PLEKHG5 (11743358_a_at) / Fold change /veh PLEKHG5 (11743358_a_at) / RFU ZSCAN30 (11745921_a_at) / Fold change /veh ZSCAN30 (11745921_a_at) / RFU CMKLR1 (11741424_a_at) / Fold change /veh CMKLR1 (11741424_a_at) / RFU LOC101060620 /// MAPK8IP1 (11723275_at) / Fold change /veh LOC101060620 /// MAPK8IP1 (11723275_at) / RFU SPTSSB (11747773_x_at) / Fold change /veh SPTSSB (11747773_x_at) / RFU PRSS12 (11739890_at) / Fold change /veh PRSS12 (11739890_at) / RFU BIN1 (11741810_x_at) / Fold change /veh BIN1 (11741810_x_at) / RFU WNT11 (11732464_a_at) / Fold change /veh WNT11 (11732464_a_at) / RFU C10orf10 (11716521_a_at) / Fold change /veh C10orf10 (11716521_a_at) / RFU C5orf56 (11738089_at) / Fold change /veh C5orf56 (11738089_at) / RFU CYB561 (11721691_x_at) / Fold change /veh CYB561 (11721691_x_at) / RFU ANKRD19P (11752326_a_at) / Fold change /veh ANKRD19P (11752326_a_at) / RFU OR2T12 /// OR2T33 /// OR2T8 (11738714_s_at) / Fold change /veh OR2T12 /// OR2T33 /// OR2T8 (11738714_s_at) / RFU VCAN (11748164_a_at) / Fold change /veh VCAN (11748164_a_at) / RFU JSRP1 (11732532_at) / Fold change /veh JSRP1 (11732532_at) / RFU KRTAP10-11 (11738290_x_at) / Fold change /veh KRTAP10-11 (11738290_x_at) / RFU MYO3A (11730013_a_at) / Fold change /veh MYO3A (11730013_a_at) / RFU EBF3 (11725865_a_at) / Fold change /veh EBF3 (11725865_a_at) / RFU CAMK2N1 (11719241_x_at) / Fold change /veh CAMK2N1 (11719241_x_at) / RFU C5orf56 (11738088_a_at) / Fold change /veh C5orf56 (11738088_a_at) / RFU OLFML3 (11715873_a_at) / Fold change /veh OLFML3 (11715873_a_at) / RFU LOC100653217 /// NTM (11731650_a_at) / Fold change /veh LOC100653217 /// NTM (11731650_a_at) / RFU MAPK11 (11762145_a_at) / Fold change /veh MAPK11 (11762145_a_at) / RFU FIZ1 (11724087_x_at) / Fold change /veh FIZ1 (11724087_x_at) / RFU OASL (11726364_x_at) / Fold change /veh OASL (11726364_x_at) / RFU SOX15 (11748057_x_at) / Fold change /veh SOX15 (11748057_x_at) / RFU CD79A (11719716_a_at) / Fold change /veh CD79A (11719716_a_at) / RFU HIST1H1D (11736915_at) / Fold change /veh HIST1H1D (11736915_at) / RFU CASKIN2 (11723855_a_at) / Fold change /veh CASKIN2 (11723855_a_at) / RFU LOC730098 (11760151_x_at) / Fold change /veh LOC730098 (11760151_x_at) / RFU OR4N2 (11742367_at) / Fold change /veh OR4N2 (11742367_at) / RFU PRRT2 (11749266_a_at) / Fold change /veh PRRT2 (11749266_a_at) / RFU SNX32 (11753110_a_at) / Fold change /veh SNX32 (11753110_a_at) / RFU CDHR5 (11726645_a_at) / Fold change /veh CDHR5 (11726645_a_at) / RFU RCAN1 (11760418_a_at) / Fold change /veh RCAN1 (11760418_a_at) / RFU FAM167A (11723789_a_at) / Fold change /veh FAM167A (11723789_a_at) / RFU FAM26E (11764081_at) / Fold change /veh FAM26E (11764081_at) / RFU ISYNA1 (11749810_s_at) / Fold change /veh ISYNA1 (11749810_s_at) / RFU ACY1 (11761880_at) / Fold change /veh ACY1 (11761880_at) / RFU 11764098_at / Fold change /veh 11764098_at / RFU SAMD14 (11745864_x_at) / Fold change /veh SAMD14 (11745864_x_at) / RFU NPB (11741838_a_at) / Fold change /veh NPB (11741838_a_at) / RFU TMPRSS6 (11731388_a_at) / Fold change /veh TMPRSS6 (11731388_a_at) / RFU KRTAP10-2 (11738614_at) / Fold change /veh KRTAP10-2 (11738614_at) / RFU ARHGAP8 /// PRR5-ARHGAP8 (11727945_x_at) / Fold change /veh ARHGAP8 /// PRR5-ARHGAP8 (11727945_x_at) / RFU KRTAP5-7 /// NADSYN1 (11734609_at) / Fold change /veh KRTAP5-7 /// NADSYN1 (11734609_at) / RFU RASL12 (11751679_a_at) / Fold change /veh RASL12 (11751679_a_at) / RFU CDKN2B (11736163_a_at) / Fold change /veh CDKN2B (11736163_a_at) / RFU PRF1 (11729649_at) / Fold change /veh PRF1 (11729649_at) / RFU, ZNF638 /// ZNF638-IT1 / Fold change vs veh, ZNF638 /// ZNF638-IT1 / RFU, PANK3 / Fold change vs veh, PANK3 / RFU, SH3YL1 / Fold change vs veh, SH3YL1 / RFU, ZEB2 / Fold change vs veh, ZEB2 / RFU, NRIP1 / Fold change vs veh, NRIP1 / RFU, PTTG1IP / Fold change vs veh, PTTG1IP / RFU, CAPN2 / Fold change vs veh, CAPN2 / RFU, MED14 / Fold change vs veh, MED14 / RFU, SNORA58 / Fold change vs veh, SNORA58 / RFU, C1orf63 / Fold change vs veh, C1orf63 / RFU, LRRFIP1 / Fold change vs veh, LRRFIP1 / RFU, NDUFAF7 / Fold change vs veh, NDUFAF7 / RFU, SLC12A2 / Fold change vs veh, SLC12A2 / RFU, IBTK / Fold change vs veh, IBTK / RFU, ESF1 / Fold change vs veh, ESF1 / Fold change vs veh, TMEM50B / RFU, TAOK1 / Fold change vs veh, TAOK1 / RFU, ACBD3 / Fold change vs veh, ACBD3 / RFU, TMA16 / Fold change vs veh, TMA16 / RFU, RWDD3 / Fold change vs veh, RWDD3 / RFU, BCAT1 / Fold change vs veh, BCAT1 / RFU, EDEM3 / Fold change vs veh, EDEM3 / RFU, TMEM33 / Fold change vs veh, TMEM33 / RFU, WDR75 / Fold change vs veh, WDR75 / RFU, AHCTF1 / Fold change vs veh, AHCTF1 / RFU, TFRC / Fold change vs veh, TFRC / RFU, ZDHHC17 / Fold change vs veh, ZDHHC17 / RFU, NOM1 / Fold change vs veh, NOM1 / RFU, ARL8B / Fold change vs veh, ARL8B / RFU, ZBTB11 / Fold change vs veh, ZBTB11 / RFU, TAMM41 / Fold change vs veh, TAMM41 / RFU, KIAA1704 /// LOC100996395 / Fold change vs veh, KIAA1704 /// LOC100996395 / RFU, ING1 / Fold change vs veh, ING1 / RFU, TRMT61B / Fold change vs veh, TRMT61B / RFU, FUBP3 / Fold change vs veh, FUBP3 / RFU, TP53 / Fold change vs veh, TP53 / RFU, TNKS2 / Fold change vs veh, TNKS2 / RFU, ZFP14 / Fold change vs veh, ZFP14 / RFU, ACTR2 / Fold change vs veh, ACTR2 / RFU, PPP3R1 / Fold change vs veh, PPP3R1 / RFU, PIK3R1 / Fold change vs veh, PIK3R1 / RFU, HNRNPA1 / Fold change vs veh, HNRNPA1 / RFU, RNF170 / Fold change vs veh, RNF170 / RFU, ZNF28 / Fold change vs veh, ZNF28 / RFU, RNGTT / Fold change vs veh, RNGTT / RFU, OGT / Fold change vs veh, OGT / RFU, BRD1 / Fold change vs veh, BRD1 / RFU, MARS / Fold change vs veh, MARS / RFU, ZNF655 / Fold change vs veh, ZNF655 / RFU, FAHD1 / Fold change vs veh, FAHD1 / RFU, BDP1 / Fold change vs veh, BDP1 / RFU, LRRCC1 / Fold change vs veh, LRRCC1 / RFU, ARID1A / Fold change vs veh, ARID1A / RFU, ZNF146 / Fold change vs veh, ZNF146 / RFU, ZNF330 / Fold change vs veh, ZNF330 / RFU, GPN3 / Fold change vs veh, GPN3 / RFU, C9orf123 / Fold change vs veh, C9orf123 / RFU, N4BP2L2 / Fold change vs veh, N4BP2L2 / RFU, ARFIP1 / Fold change vs veh, ARFIP1 / RFU, FAM179B / Fold change vs veh, FAM179B / RFU, BCL10 / Fold change vs veh, BCL10 / RFU, UHRF1BP1L / Fold change vs veh, UHRF1BP1L / RFU, BET1 / Fold change vs veh, BET1 / RFU, CNOT2 / Fold change vs veh, CNOT2 / RFU, ZNF268 / Fold change vs veh, ZNF268 / Fold change vs veh, ZNF507 / RFU, DGCR2 / Fold change vs veh, DGCR2 / RFU, WDSUB1 / Fold change vs veh, WDSUB1 / Fold change vs veh, HSP90B1 /// MIR3652 / RFU, ADSS / Fold change vs veh, ADSS / RFU, GK / Fold change vs veh, GK / RFU, ZNF148 / Fold change vs veh, ZNF148 / RFU, TAF9 / Fold change vs veh, TAF9 / RFU, SLC1A5 / Fold change vs veh, SLC1A5 / RFU, SLMO2 / Fold change vs veh, SLMO2 / RFU, ABCC4 / Fold change vs veh, ABCC4 / RFU, LOC101060439 /// RAP1B / Fold change vs veh, LOC101060439 /// RAP1B / RFU, RFX7 / Fold change vs veh, RFX7 / RFU, GTPBP10 / Fold change vs veh, GTPBP10 / RFU, CNEP1R1 / Fold change vs veh, CNEP1R1 / RFU, BIVM-ERCC5 /// ERCC5 / Fold change vs veh, BIVM-ERCC5 /// ERCC5 / RFU, ILF3 / Fold change vs veh, ILF3 / RFU 11762660_at / Fold change /veh 11762660_at / RFU VCAN (11757783_s_at) / Fold change /veh VCAN (11757783_s_at) / RFU DDX43 (11728927_at) / Fold change /veh DDX43 (11728927_at) / RFU KRT8 (11758188_x_at) / Fold change /veh KRT8 (11758188_x_at) / RFU NKD1 (11759106_at) / Fold change /veh NKD1 (11759106_at) / RFU SRD5A1 (11742802_a_at) / Fold change /veh SRD5A1 (11742802_a_at) / RFU TPSAB1 /// TPSB2 (11721975_s_at) / Fold change /veh TPSAB1 /// TPSB2 (11721975_s_at) / RFU GSTM3 (11746129_a_at) / Fold change /veh GSTM3 (11746129_a_at) / RFU IL23R (11737362_x_at) / Fold change /veh IL23R (11737362_x_at) / RFU TMEM51 (11727254_a_at) / Fold change /veh TMEM51 (11727254_a_at) / RFU PIWIL2 (11732686_x_at) / Fold change /veh PIWIL2 (11732686_x_at) / RFU ORM1 (11744905_x_at) / Fold change /veh ORM1 (11744905_x_at) / RFU CCDC152 (11743942_at) / Fold change /veh CCDC152 (11743942_at) / RFU ECM1 (11717891_a_at) / Fold change /veh ECM1 (11717891_a_at) / RFU IL23R (11748794_a_at) / Fold change /veh IL23R (11748794_a_at) / RFU TNFAIP8L3 (11732012_x_at) / Fold change /veh TNFAIP8L3 (11732012_x_at) / RFU MBOAT4 (11741988_at) / Fold change /veh MBOAT4 (11741988_at) / RFU 11764193_at / Fold change /veh 11764193_at / RFU TMEM53 (11763286_at) / Fold change /veh TMEM53 (11763286_at) / RFU MAGEB2 (11727129_at) / Fold change /veh MAGEB2 (11727129_at) / RFU TMEM200A (11744735_a_at) / Fold change /veh TMEM200A (11744735_a_at) / RFU CCDC152 (11751479_a_at) / Fold change /veh CCDC152 (11751479_a_at) / RFU FAM211A (11726209_a_at) / Fold change /veh FAM211A (11726209_a_at) / RFU RGS16 (11746705_a_at) / Fold change /veh RGS16 (11746705_a_at) / RFU VCAN (11755009_s_at) / Fold change /veh VCAN (11755009_s_at) / RFU RHOB (11743442_s_at) / Fold change /veh RHOB (11743442_s_at) / RFU RGS16 (11720943_a_at) / Fold change /veh RGS16 (11720943_a_at) / RFU RGS16 (11720944_at) / Fold change /veh RGS16 (11720944_at) / RFU, VPS4B / Fold change vs veh, VPS4B / RFU, CREB1 / Fold change vs veh, CREB1 / RFU, DNAJC13 / Fold change vs veh, DNAJC13 / RFU, GNAQ / Fold change vs veh, GNAQ / RFU, CDK5R1 / Fold change vs veh, CDK5R1 / RFU, ZRANB3 / Fold change vs veh, ZRANB3 / RFU, CUL4A / Fold change vs veh, CUL4A / RFU, CCNY / Fold change vs veh, CCNY / RFU, UFL1 / Fold change vs veh, UFL1 / RFU, COG3 / Fold change vs veh, COG3 / RFU, DIAPH2 / Fold change vs veh, DIAPH2 / RFU, SKA2 / Fold change vs veh, SKA2 / RFU, AFF3 / Fold change vs veh, AFF3 / RFU, LMF1 / Fold change vs veh, LMF1 / RFU, IPO11 / Fold change vs veh, IPO11 / RFU, DFFB / Fold change vs veh, DFFB / RFU, FOXP1 / Fold change vs veh, FOXP1 / RFU, CARD8 / Fold change vs veh, CARD8 / RFU, STRN3 / Fold change vs veh, STRN3 / RFU, ADK / Fold change vs veh, ADK / RFU, RASSF2 / Fold change vs veh, RASSF2 / RFU, WIPF1 / Fold change vs veh, WIPF1 / RFU, LARP1B / Fold change vs veh, LARP1B / RFU, RASA1 / Fold change vs veh, RASA1 / RFU, RB1 / Fold change vs veh, RB1 / RFU, PPFIA1 / Fold change vs veh, PPFIA1 / RFU, MAT2A / Fold change vs veh, MAT2A / RFU, CCT5 / Fold change vs veh, CCT5 / RFU, WDR92 / Fold change vs veh, WDR92 / RFU, CUX1 / Fold change vs veh, CUX1 / RFU, TTC7A / Fold change vs veh, TTC7A / RFU, TMEM135 / Fold change vs veh, TMEM135 / RFU, DEPTOR / Fold change vs veh, DEPTOR / RFU, CPM / Fold change vs veh, CPM / RFU, DNAJB6 / Fold change vs veh, DNAJB6 / RFU, CACNA2D3 / Fold change vs veh, CACNA2D3 / RFU, DTX4 / Fold change vs veh, DTX4 / RFU, TFCP2 / Fold change vs veh, TFCP2 / RFU, GMCL1 /// GMCL1P1 / Fold change vs veh, GMCL1 /// GMCL1P1 / RFU, AEBP2 / Fold change vs veh, AEBP2 / RFU, SNHG1 /// SNORD22 /// SNORD25 /// SNORD26 /// SNORD27 /// SNORD28 /// SNORD29 /// SNORD31 / Fold change vs veh, SNHG1 /// SNORD22 /// SNORD25 /// SNORD26 /// SNORD27 /// SNORD28 /// SNORD29 /// SNORD31 / Fold change (Aza/veh), C12orf56 (ProbeSet 11735607_a_at) / Fold change (ACY-1035/veh), C12orf56 (ProbeSet 11735607_a_at) / Fold change (Aza/veh), FGFR1OP (ProbeSet 11751329_s_at) / Fold change (ACY-1035/veh), FGFR1OP (ProbeSet 11751329_s_at) / Fold change (Aza/veh), VPS36 (ProbeSet 11739960_a_at) / Fold change (ACY-1035/veh), VPS36 (ProbeSet 11739960_a_at) / RFU SYPL1 (11715823_x_at) / Fold change /veh SYPL1 (11715823_x_at) / RFU IGFBP7 (11715501_s_at) / Fold change /veh IGFBP7 (11715501_s_at) / RFU REEP3 (11722064_at) / Fold change /veh REEP3 (11722064_at) / RFU IGLL1 (11728026_x_at) / Fold change /veh IGLL1 (11728026_x_at): dose or concentration left out as unconfirmed
# Details: gene C12orf56; Azacitidine vs DMSO; LIST F
structure (smiles),measurement,value
Nc1ncn([C@@H]2O[C@H](CO)[C@@H](O)[C@H]2O)c(=O)n1 [azacitidine],"Fold change (Aza/veh), C12orf56 (ProbeSet 11735607_a_at)",1.01
